Tests used:
Assay in all cases: biochemical
Type in all cases: biochemical
[1] = target: 363 human kinases (including Aurora A/B/C) (Homo sapiens, UniProt P21802); details: FGFR2, [ATP] 5 µM; for remaining activity at 0.1 µM: 100 nM; for remaining activity at 0.1 µM / remaining activity at 0.5 µM: read-out: % Enzyme Activity (relative to DMSO controls)
Text: (§1) However, the Aurora A/B selectivity ratios derived from our in vitro and in vivo data can be compared to prioritize inhibitors.

[2] = target: 363 human kinases (including Aurora A/B/C) (Homo sapiens, UniProt P53671); details: LIMK2; for remaining activity at 0.1 µM: 100 nM; for remaining activity at 0.1 µM / remaining activity at 0.5 µM: read-out: % Enzyme Activity (relative to DMSO controls)
Text: as §1

[3] = target: 363 human kinases (including Aurora A/B/C) (Homo sapiens, UniProt Q9P1W9); details: PIM2; for remaining activity at 0.1 µM: 100 nM; for remaining activity at 0.1 µM / remaining activity at 0.5 µM: read-out: % Enzyme Activity (relative to DMSO controls)
Text: as §1

[4] = target: T1, 363 human kinases (including Aurora A/B/C) (Homo sapiens, UniProt Q6VAB6); details: KSR2; for remaining activity at 0.1 µM: 100 nM; for remaining activity at 0.1 µM / remaining activity at 0.5 µM: read-out: % Enzyme Activity (relative to DMSO controls)
T1 sequence (Q6VAB6 1-950): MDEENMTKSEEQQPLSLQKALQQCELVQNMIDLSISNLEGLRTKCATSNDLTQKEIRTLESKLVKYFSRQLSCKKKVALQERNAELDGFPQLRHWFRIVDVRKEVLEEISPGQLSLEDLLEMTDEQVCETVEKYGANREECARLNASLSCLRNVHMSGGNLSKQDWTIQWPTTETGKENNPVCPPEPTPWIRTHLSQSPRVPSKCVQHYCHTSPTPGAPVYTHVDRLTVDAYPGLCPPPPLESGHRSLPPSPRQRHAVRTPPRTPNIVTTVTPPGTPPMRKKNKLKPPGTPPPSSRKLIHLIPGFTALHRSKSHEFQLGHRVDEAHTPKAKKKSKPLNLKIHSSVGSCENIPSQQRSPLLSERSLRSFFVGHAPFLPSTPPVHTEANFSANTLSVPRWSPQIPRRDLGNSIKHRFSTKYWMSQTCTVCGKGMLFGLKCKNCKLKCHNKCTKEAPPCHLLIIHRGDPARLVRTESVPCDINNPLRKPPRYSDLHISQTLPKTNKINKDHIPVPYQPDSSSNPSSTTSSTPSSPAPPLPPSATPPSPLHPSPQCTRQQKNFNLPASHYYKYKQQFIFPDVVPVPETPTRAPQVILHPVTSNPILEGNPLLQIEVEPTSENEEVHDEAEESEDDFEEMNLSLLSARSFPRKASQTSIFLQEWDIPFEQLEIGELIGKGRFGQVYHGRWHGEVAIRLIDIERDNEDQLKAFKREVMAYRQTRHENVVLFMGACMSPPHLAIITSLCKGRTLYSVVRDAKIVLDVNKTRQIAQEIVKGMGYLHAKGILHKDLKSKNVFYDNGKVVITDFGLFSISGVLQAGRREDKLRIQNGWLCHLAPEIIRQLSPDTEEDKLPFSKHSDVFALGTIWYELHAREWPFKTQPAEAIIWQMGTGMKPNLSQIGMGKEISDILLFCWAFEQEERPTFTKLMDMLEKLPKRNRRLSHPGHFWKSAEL
Text: as §1

[5] = target: T2, 363 human kinases (including Aurora A/B/C) (Homo sapiens, UniProt Q9NRH2); details: SNRK; for remaining activity at 0.1 µM: 100 nM; for remaining activity at 0.1 µM / remaining activity at 0.5 µM: read-out: % Enzyme Activity (relative to DMSO controls)
T2 sequence (Q9NRH2 1-765): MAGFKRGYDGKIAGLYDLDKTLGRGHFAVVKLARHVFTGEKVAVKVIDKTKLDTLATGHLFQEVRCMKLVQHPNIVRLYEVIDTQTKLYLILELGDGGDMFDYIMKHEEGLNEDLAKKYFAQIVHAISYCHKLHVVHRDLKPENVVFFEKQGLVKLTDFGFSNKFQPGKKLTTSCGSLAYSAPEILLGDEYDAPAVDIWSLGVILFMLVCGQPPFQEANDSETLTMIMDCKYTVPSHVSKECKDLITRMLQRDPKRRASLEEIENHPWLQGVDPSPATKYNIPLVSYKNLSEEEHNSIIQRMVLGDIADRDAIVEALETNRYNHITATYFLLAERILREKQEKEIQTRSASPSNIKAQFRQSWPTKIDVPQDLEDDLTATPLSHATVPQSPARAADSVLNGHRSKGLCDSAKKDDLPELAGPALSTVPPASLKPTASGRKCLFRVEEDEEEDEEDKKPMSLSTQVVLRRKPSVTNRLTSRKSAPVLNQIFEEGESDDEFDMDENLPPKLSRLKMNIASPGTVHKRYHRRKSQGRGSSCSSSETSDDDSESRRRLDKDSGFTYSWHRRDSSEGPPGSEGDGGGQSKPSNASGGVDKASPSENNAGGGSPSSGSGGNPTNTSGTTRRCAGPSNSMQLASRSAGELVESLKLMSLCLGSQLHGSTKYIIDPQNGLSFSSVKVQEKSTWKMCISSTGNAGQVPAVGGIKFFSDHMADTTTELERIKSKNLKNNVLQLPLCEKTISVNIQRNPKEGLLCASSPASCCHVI
Text: as §1

[6] = target: 363 human kinases (including Aurora A/B/C) (Homo sapiens, UniProt Q9UBS0); details: p70S6Kb/RPS6KB2; for remaining activity at 0.1 µM: 100 nM; for remaining activity at 0.1 µM / remaining activity at 0.5 µM: read-out: % Enzyme Activity (relative to DMSO controls)
Text: as §1

[7] = target: 363 human kinases (including Aurora A/B/C) (Homo sapiens, UniProt P28482); details: ERK2/MAPK1, [ATP] 50 µM; for remaining activity at 0.1 µM: 100 nM; for remaining activity at 0.1 µM / remaining activity at 0.5 µM: read-out: % Enzyme Activity (relative to DMSO controls)
Text: as §1

[8] = target: T3, 363 human kinases (including Aurora A/B/C) (Homo sapiens, UniProt P42680); details: TEC; for remaining activity at 0.1 µM: 100 nM; for remaining activity at 0.1 µM / remaining activity at 0.5 µM: read-out: % Enzyme Activity (relative to DMSO controls)
T3 sequence (P42680 1-631): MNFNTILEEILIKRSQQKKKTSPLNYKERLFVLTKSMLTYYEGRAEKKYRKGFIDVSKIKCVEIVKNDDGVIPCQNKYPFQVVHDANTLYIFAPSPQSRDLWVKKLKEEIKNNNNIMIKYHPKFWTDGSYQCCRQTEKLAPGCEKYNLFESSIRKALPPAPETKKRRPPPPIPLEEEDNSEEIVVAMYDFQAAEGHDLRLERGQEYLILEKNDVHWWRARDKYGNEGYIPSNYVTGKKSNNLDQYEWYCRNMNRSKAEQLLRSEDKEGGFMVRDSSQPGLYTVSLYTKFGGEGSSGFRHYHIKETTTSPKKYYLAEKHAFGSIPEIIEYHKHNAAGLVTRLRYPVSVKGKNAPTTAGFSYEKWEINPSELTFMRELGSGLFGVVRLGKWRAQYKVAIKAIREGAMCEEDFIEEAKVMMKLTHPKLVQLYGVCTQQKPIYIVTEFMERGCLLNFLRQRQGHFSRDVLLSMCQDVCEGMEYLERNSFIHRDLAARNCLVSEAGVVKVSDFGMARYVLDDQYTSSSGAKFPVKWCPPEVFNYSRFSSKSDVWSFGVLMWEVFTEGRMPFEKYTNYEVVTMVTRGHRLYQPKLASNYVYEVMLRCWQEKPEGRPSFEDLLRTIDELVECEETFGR
Text: as §1

Chain of 363 human kinases (including Aurora A/B/C) (Homo sapiens, UniProt P53671) (P53671 whole entry): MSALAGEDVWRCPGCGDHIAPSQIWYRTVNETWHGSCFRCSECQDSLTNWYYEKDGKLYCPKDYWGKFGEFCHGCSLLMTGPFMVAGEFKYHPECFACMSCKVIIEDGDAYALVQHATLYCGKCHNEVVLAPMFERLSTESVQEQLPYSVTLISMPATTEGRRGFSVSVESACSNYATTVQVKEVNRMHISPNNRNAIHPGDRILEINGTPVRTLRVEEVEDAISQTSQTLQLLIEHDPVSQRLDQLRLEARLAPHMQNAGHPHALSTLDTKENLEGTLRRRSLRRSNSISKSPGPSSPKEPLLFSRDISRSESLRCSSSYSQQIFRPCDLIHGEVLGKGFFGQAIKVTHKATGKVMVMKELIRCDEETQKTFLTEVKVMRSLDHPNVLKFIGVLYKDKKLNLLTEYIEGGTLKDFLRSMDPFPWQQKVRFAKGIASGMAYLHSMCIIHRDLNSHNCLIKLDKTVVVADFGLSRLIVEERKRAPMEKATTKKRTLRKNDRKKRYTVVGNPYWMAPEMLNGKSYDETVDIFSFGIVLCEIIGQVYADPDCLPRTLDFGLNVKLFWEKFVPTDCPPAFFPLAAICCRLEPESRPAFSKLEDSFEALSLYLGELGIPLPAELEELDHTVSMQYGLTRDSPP
Chain of 363 human kinases (including Aurora A/B/C) (Homo sapiens, UniProt P21802) (P21802 22-821): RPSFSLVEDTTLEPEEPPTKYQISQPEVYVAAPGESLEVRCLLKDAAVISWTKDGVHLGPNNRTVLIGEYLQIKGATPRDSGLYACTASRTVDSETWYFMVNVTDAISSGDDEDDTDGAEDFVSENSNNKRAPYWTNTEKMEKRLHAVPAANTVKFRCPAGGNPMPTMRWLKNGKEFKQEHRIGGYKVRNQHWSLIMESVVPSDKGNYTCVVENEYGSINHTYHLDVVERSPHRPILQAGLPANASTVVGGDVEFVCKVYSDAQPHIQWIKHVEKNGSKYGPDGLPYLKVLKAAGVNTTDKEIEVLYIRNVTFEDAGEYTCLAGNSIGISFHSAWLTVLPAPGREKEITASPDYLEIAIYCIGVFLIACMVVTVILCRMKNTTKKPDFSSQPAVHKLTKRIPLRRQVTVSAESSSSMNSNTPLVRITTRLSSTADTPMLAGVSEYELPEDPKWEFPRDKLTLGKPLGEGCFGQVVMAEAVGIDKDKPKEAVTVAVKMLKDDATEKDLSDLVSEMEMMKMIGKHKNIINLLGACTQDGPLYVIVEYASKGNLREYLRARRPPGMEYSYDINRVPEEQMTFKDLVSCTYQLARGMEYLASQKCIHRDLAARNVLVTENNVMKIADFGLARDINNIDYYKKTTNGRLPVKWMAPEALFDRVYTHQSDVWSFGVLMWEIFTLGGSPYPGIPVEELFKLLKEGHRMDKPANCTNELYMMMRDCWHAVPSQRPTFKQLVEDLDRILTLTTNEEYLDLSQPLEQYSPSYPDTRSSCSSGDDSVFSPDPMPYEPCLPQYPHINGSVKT
Chain of 363 human kinases (including Aurora A/B/C) (Homo sapiens, UniProt P28482) (P28482 whole entry): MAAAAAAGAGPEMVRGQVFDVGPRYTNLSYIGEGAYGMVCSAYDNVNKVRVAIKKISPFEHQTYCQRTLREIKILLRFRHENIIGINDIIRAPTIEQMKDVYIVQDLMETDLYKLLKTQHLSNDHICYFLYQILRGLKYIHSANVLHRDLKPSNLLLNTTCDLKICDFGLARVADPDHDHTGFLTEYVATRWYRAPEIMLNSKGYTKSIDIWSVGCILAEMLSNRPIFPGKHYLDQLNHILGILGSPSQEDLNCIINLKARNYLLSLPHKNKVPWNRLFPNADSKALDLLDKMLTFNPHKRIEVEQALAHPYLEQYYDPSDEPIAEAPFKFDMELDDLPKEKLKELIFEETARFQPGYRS
Chain of 363 human kinases (including Aurora A/B/C) (Homo sapiens, UniProt Q9P1W9) (Q9P1W9 whole entry): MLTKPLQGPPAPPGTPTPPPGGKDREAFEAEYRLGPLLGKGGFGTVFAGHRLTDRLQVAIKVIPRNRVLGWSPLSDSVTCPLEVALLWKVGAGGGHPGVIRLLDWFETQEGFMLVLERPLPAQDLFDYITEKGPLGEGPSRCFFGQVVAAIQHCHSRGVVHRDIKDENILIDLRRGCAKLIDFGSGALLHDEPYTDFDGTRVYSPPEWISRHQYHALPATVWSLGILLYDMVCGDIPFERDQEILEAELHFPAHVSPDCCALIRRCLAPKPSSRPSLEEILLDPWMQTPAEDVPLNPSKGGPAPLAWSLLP
Chain of 363 human kinases (including Aurora A/B/C) (Homo sapiens, UniProt Q9UBS0) (Q9UBS0 whole entry): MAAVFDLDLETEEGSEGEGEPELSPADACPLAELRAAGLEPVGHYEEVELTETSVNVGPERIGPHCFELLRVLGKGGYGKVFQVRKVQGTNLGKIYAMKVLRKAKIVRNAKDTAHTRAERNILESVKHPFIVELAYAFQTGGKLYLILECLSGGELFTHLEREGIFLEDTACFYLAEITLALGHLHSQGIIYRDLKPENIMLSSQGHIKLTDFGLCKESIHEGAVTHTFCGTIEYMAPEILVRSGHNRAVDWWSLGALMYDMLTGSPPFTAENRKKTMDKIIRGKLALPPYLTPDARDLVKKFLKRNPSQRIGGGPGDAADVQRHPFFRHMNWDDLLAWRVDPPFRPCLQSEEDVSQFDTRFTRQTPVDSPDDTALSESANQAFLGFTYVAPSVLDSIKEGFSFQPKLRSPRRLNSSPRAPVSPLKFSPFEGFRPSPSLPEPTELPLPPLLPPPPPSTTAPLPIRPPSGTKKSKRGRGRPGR

| Compound | remaining activity at 0.1 µM [1] [%] | remaining activity at 0.1 µM [2] [%] | remaining activity at 0.1 µM [3] [%] | remaining activity at 0.1 µM [4] [%] | remaining activity at 0.1 µM [5] [%] | remaining activity at 0.1 µM [6] [%] | remaining activity at 0.1 µM [7] [%] | remaining activity at 0.1 µM [8] [%] | remaining activity at 0.5 µM ([1]; 500 nM) [%] | remaining activity at 0.5 µM ([2]; 500 nM) [%] | remaining activity at 0.5 µM ([3]; 500 nM) [%] | remaining activity at 0.5 µM ([4]; 500 nM) [%] | remaining activity at 0.5 µM ([5]; 500 nM) [%] | remaining activity at 0.5 µM ([6]; 500 nM) [%] | remaining activity at 0.5 µM ([7]; 500 nM) [%] | remaining activity at 0.5 µM ([8]; 500 nM) [%] | further results |
| --- | --- | --- | --- | --- | --- | --- | --- | --- | --- | --- | --- | --- | --- | --- | --- | --- | --- |
| CCn1cc(-c2ccnc3[nH]c(-c4cccc(CN(C)C)c4)cc23)c(-c2ccc(NC(=O)N(C)C)cc2)n1 [GSK1070916] | 43.3 | 103 | 87.2 | 101 | 89.8 | 110 | 101 | 100 | – | – | – | – | – | – | – | – | – |
| O=C(c1cccc(Cl)c1F)N1CCN(Cc2cccc(Nc3nccs3)n2)CC1 [MK-8745] | – | – | – | – | – | – | – | – | 92 | 98.4 | 93.8 | 98.3 | 92.9 | 99.3 | 104 | 102 | % Enzyme Activity (relative to DMSO controls) ([1]; 500 nM): 90.67%; % Enzyme Activity (relative to DMSO controls) ([2]; 500 nM): 97.95%; % Enzyme Activity (relative to DMSO controls) ([3]; 500 nM): 93.64%; % Enzyme Activity (relative to DMSO controls) ([4]; 500 nM): 95.49%; % Enzyme Activity (relative to DMSO controls) ([5]; 500 nM): 90.66%; % Enzyme Activity (relative to DMSO controls) ([6]; 500 nM): 97.78%; % Enzyme Activity (relative to DMSO controls) ([7]; 500 nM): 103.36%; % Enzyme Activity (relative to DMSO controls) ([8]; 500 nM): 100.04% |
| O=C(O)[C@]1(Cc2cccc(Nc3nccs3)n2)CC[C@@H](Oc2cccc(Cl)c2F)CC1 [MK-5108] | 39.7 | 92.8 | 104 | 95.6 | 95.3 | 100 | 98.4 | 68.8 | 11.2 | 76.2 | 88.5 | 94.5 | 88.9 | 99 | 106 | 40.6 | – |
